Measured values as given in publication PMC3438169 (PLoS ONE, 2012).
*1 amine or outer side, *2 acyl side, *3 side chain or, on linkers, in order; H or OH if unused. Where a SMILES comes first, the peptide text is derived from it. [ ]: non-standard residue; d: D form. dAla(ψthiazole) = C[C@@H](N[*:1])c1nc(C(=O)[*:2])cs1; Trp(4-OMe) = COc1cccc2[nH]cc(C[C@H](N)C(=O)O)c12; dAbu = CC[C@@H](N)C(=O)O; Dha = C=C(N)C(=O)O; Sar = CNCC(=O)O

How the values were obtained:
RKO = assay: Cell viability (CellTiter-Glo), RKO with siRNA or mEF-G1 variants; assay type: cell-based, human
Protocol: HCT116 (ATCC, CCL-247) and RKO (ATCC, CRL-2577) cell lines were maintained in a humidified incubator at 37°C and 5% CO2 in RPMI1640 supplemented with 10% FBS. Cell viability was determined using the CellTiter-Glo luminescent cell viability assay (Promega). […] Subsequently, 40 µl of CellTiter-Glo reagent was added to each well and luminescence recorded on an Envision plate reader (Perkin Elmer). Each treatment condition was tested in triplicate and compared to an equivalent volume of DMSO as control.
Non-targeting (NT) or GFM1 siRNA pools were obtained from Dharmacon (ON-TARGETplus SMART pool D-001810 and L-013685). HCT116 and RKO cells were reverse transfected in 6-well plates using RNAiMax (Invitrogen) and 25 nM siRNA. After 2 days, cells were harvested by trypsinization and re-plated into 6-well plates for western blot analysis or into 384-well plates for compound treatments and cell viability determination using CellTiter-Glo as described above.
The human GFM1 cDNA (encoding mEF-G1, Table 2) was mutagenized in pENTR221 (Invitrogen) using QuikChangeII XL site-directed mutagenesis (Stratagene). The following point mutations were introduced: C1355T (encoding S452L), C1481T (encoding S494F) and T2078A (encoding L693Q). The GFM1 cDNAs were then subcloned into the mammalian expression vector pLenti4/TO/V5 using LR clonase II (Invitrogen) and sequence-verified. The pLenti4 constructs were then co-transfected with a lentiviral plasmid mix (encoding LP1, LP2 and VSV-G) into 293T cells, and viral particles were harvested after 72 h and used to infect HCT116 and RKO cells. Stable cell lines were generated by selection with 400 µg/ml Zeocin and plated into 6-well plates for western blot analysis or into 384-well plates for compound treatments and cell viability determination using CellTiter-Glo as described above.

P. aeruginosa EF-G1 = target: T1, P. aeruginosa EF-G1 (Pseudomonas aeruginosa, UniProt Q9HWD2); assay: Co-crystal structure of EF-G1 with argyrin B; assay type: binding; details: PDB 4FN5, 2.9 Å
T1 construct: P. aeroginosa fusA1 encoding full-length EF-G was PCR amplified from pET28a-PaEFG-Nhis; made in house; host or cells: E. coli BL21 (DE3)
Protocol: BL21 (DE3) cells harboring pET28a-PaEFG-Nhis were grown in Terrific Broth containing 100 µg/ml kanamycin. EF-G1 expression was induced using 1 mM IPTG. Cell pellets were resuspended and lysed using a microfluidizer, after which ultracentrifugation was performed. Purification was done using NiNTA resin followed by removal of the N-terminal Histidine tag with thrombin protease. The protein was further purified using a Mono Q column and was then concentrated and loaded onto a HiLoad Superdex 200 26/60 column, exchanging the protein into 25 mM Tris-HCl pH 7.5, 150 mM NaCl and 1 mM TCEP. […] Sitting drop vapor diffusion method was used for crystallization, with the crystallization well containing 100 mM Tris-HCl pH 7.5, 18% PEG 3350 and 200 mM sodium nitrate, and the drop containing a 1∶1 volume of protein and crystallization solution. After crystals formed they were subsequently cryoprotected using the crystallization solution with the addition of 20% glycerol, followed by flash freezing directly into liquid nitrogen.
The data were measured from a single crystal maintained at 100°K, and the reflections were indexed, integrated, and scaled using autoPROC [27], [28]. The spacegroup of the complex is C2 with 1 molecule in the asymmetric unit. The structure was determined with PHASER [29] using molecular replacement methods with a starting model of Thermus thermophilus EF-G (PDB Code 2BM0). […]

P. aeruginosa = assay: Broth microdilution susceptibility to argyrin B, P. aeruginosa strains; assay type: cell-based; details: for Susceptibility to argyrin B: broth microdilution

C=C1NC(=O)CN(C)C(=O)CNC(=O)[C@H](Cc2c[nH]c3cccc(OC)c23)NC(=O)[C@H](Cc2c[nH]c3ccccc23)NC(=O)c2csc(n2)[C@@H](C)NC(=O)[C@@H](CC)NC1=O [argyrin B] (cyclo([dAbu][dAla(ψthiazole)]W[Trp(4-OMe)]G[Sar][Dha]))
Lowering of IC50 by knock down of mEF-G1 (RKO; GFM1 siRNA, 7 days, CellTiter Glo): ~3.3 fold
Sensitivity under hypoxic culture conditions (in words) (RKO; hypoxia, data not shown): became less sensitive
Decrease of susceptibility on expression of mEF-G1 L693Q (RKO; mEF-G1 L693Q, 7 days): 7 fold
Sensitivity change on expression of mEF-G1 S452L and S494F (in words) (RKO; mEF-G1 S452L and S494F, 7 days): only marginal effects
Sensitivity change on overexpression of mEF-G1 WT (in words) (RKO; mEF-G1 WT stable overexpression, 7 days): did not alter the argyrin B-sensitivity
Binding site in co-crystal structure (P. aeruginosa EF-G1): bound at the interface of domains III and V
Susceptibility to argyrin B (P. aeruginosa; P. aeruginosa ATCC 12055 (parent of ATCC 35151)): 8 µg/mL
Susceptibility to argyrin B (P. aeruginosa; P. aeruginosa ATCC 35151 (Z61), hypersensitive): 0.125 to 0.25 µg/mL
Susceptibility to argyrin B (P. aeruginosa; P. aeruginosa CDA0055 (Z61, FusA1 S417L)): 64 µg/mL
Susceptibility to argyrin B (P. aeruginosa; P. aeruginosa CDA0056 (Z61, FusA1 S459F)): 8 µg/mL
Susceptibility to argyrin B (P. aeruginosa; P. aeruginosa CDA0061 (Z61, FusA L663Q)): >128 µg/mL
Susceptibility to argyrin B (P. aeruginosa; P. aeruginosa CDR0052 (K767, FusA1 T671A)): >128 µg/mL
Susceptibility to argyrin B (P. aeruginosa; P. aeruginosa CDR0054 (K767, FusA1 S459F)): >128 µg/mL
Susceptibility to argyrin B (P. aeruginosa; P. aeruginosa CDR0055 (K767, FusA1 S417L)): >128 µg/mL
Susceptibility to argyrin B (P. aeruginosa; P. aeruginosa CDR0056 (K767, FusA1 Y683C)): >128 µg/mL
Susceptibility to argyrin B (P. aeruginosa; P. aeruginosa CDR0057 (K767, FusA1 P486S)): >128 µg/mL
Susceptibility to argyrin B (P. aeruginosa; P. aeruginosa CDR0058 (K767, FusA1 P414S)): >128 µg/mL
Susceptibility to argyrin B (P. aeruginosa; P. aeruginosa K767 (PAO1, prototroph)): 8 µg/mL
Sensitivity of mutants to argyrin B (in words) (P. aeruginosa; P. aeruginosa Z61 mutants with S417L and S459F substitutions): still partially sensitive
